The values below come from publication PMC6302903, “Protein and Chemical Determinants of BL-1249 Action and Selectivity for K2P Channels” (ACS Chemical Neuroscience, 2018).

The term EC50 denotes the midpoint of the concentration-response curve.

Assay [1] has as its target T1, K2P4.1(TRAAK) (Mus musculus, UniProt O88454).
T1 construct: expressed in transfected cells; host or cells: Xenopus laevis oocytes injected with mRNA made from pGEMHE/pMO
T1 sequence (O88454 1-398): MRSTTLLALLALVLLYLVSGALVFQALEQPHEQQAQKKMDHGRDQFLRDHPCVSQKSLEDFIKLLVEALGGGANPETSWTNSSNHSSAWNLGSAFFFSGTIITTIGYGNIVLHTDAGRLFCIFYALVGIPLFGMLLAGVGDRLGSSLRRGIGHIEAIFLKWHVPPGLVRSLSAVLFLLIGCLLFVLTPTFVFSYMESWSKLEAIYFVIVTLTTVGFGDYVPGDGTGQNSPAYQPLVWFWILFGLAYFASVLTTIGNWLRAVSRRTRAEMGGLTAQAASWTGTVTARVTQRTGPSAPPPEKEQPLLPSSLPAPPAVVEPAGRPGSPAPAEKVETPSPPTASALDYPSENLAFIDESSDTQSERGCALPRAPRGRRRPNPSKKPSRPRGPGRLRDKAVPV
Nature of the assay: TEVC of K2P4.1(TRAAK) in Xenopus oocytes. The following applies: I/I0 at 0 mV. It is filed as cell-based. The source says:
(§1) Constructs for murine K2P channels, including K2P2.1(TREK-1) (Gene ID 16526), K2P10.1(TREK-2) (Gene ID 72258), K2P4.1(TRAAK) (Gene ID 16528), K2P5.1(TASK-2) (Gene ID 16529), K2P3.1(TASK-1) (Gene ID 16527), K2P9.1(TASK-3) (Gene ID 223604), and K2P18.1(TRESK) (Gene ID 332396) in pGEMHE/pMO, were used for Xenopus oocyte experiments as previously described.[10],[26] Murine K2P2.1(TREK-1) (Gene ID 16526) was expressed in HEK-293 cells using a pIRES-EGFP construct as previously described.[26] Murine K2P13.1(THIK-1) (Gene ID 217826) and K2P1.1(TWIK-1) (Gene ID 16525) were cloned into pGEMHE/pMO for use in Xenopus oocytes. Chimeras were designed using EMBOSS Needle pairwise sequence alignment tool[58] to match homologous helices in K2P2.1(TREK-1) and K2P4.1(TRAAK) and were assembled using the Gibson assembly method.[59] Chimera boundaries are Thr152 (TREK-1/AAK M2-C), Trp199 (TREK-1/AAK M3-C), Y272 (TREK-1/AAK M4-C), Thr114 (TRAAK/EK-1 M2-C), Trp161 (TRAAK/EK-1 M3-C), and Tyr234 K2P4.1(TRAAK). All sequences were verified using DNA sequencing.
(§2) Xenopus laevis oocytes were harvested in accordance with UCSF IACUC protocol AN129690 and digested in calcium-free ND-96 (96 mM NaCl, 2 mM KCl, 3.8 mM MgCl2) immediately following harvest, as previously described.[6],[10] Digested oocytes were maintained in standard ND96 (96 mM NaCl, 2 mM KCl, 1.8 mM CaCl2, 2 mM MgCl2) with antibiotics (100 units mL^–1 penicillin, 100 μg mL^–1 streptomycin, 50 μg mL^–1 gentimycin). Defolliculated stage V–VI oocytes were injected with 0.2–6.0 ng of mRNA in 50 nL, and currents were recorded 24–48 h after injection. mRNA was synthesized from plasmid DNA using mMessage mMachine Kit (T7 promoter, Ambion, Life Technologies) and purified using RNEasy Kit (Qiagen). Injected oocytes were impaled with two standard microelectrodes (0.2–1.0 MΩ) filled with 3 M KCl and subjected to constant perfusion of standard ND96 during recording. Currents were amplified using the GeneClamp 500B (MDS Analytical Technologies) amplifier controlled by the pClamp software (Molecular Devices). Data were digitized at 1 kHz using Digidata 1332A (MDS Analytical Technologies). For all experiments with small molecules, basal currents were evoked using 1 s long ramps from −150 to +50 mV under constant perfusion of ND96. Once stabilized basal currents were recorded, compounds were perfused at various concentrations in standard ND96 and currents were allowed to increase to stabilization before recording final current. Fold activation upon compound application is expressed as I/I0 (0 mV), derived from the current at 0 mV in the presence of compound divided by the basal current at 0 mV in standard ND96 without compound. Data were analyzed and plotted using Graphpad Prism Version 5 (GraphPad Software, San Diego California USA, www.graphpad.com). […] In the case of BL-1249-acid EC50 estimation, upper bound of I/I0 was set to 20 to account for the strong stimulation of BL-1249-acid.

Assay [2] deals with T2, K2P2.1(TREK-1) (Mus musculus, UniProt P97438).
T2 sequence (P97438 1-411 isoform P97438-2): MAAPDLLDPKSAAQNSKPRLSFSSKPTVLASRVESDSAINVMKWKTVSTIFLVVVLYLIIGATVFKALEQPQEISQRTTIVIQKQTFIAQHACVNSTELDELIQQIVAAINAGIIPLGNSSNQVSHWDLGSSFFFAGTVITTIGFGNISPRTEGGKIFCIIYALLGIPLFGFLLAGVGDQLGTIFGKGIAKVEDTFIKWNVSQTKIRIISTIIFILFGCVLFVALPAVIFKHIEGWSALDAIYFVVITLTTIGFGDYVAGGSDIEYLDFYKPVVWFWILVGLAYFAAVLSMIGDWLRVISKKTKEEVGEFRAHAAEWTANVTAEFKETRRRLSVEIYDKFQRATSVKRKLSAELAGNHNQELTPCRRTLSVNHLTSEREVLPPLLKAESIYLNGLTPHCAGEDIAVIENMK
Nature of the assay: TEVC of K2P2.1(TREK-1) in Xenopus oocytes. The format is cell-based. Set-up: expressed in transfected cells; host or cells: Xenopus laevis oocytes injected with mRNA made from pGEMHE/pMO. The following applies: for effect on K2P2.1(TREK-1) current (in words): dose-response.
Source text: as §1, §2

Assay [3] has as its target T3, TREK-1/AAK M4-C (Mus musculus, UniProt O88454+P97438).
T3 construct: Y272 (TREK-1/AAK M4-C); expressed in transfected cells; host or cells: Xenopus laevis oocytes, mRNA injected; chimera built by Gibson assembly
T3 sequence (P97438+O88454 with tags, fused parts or gaps P97438:V273L/P97438:V280F/P97438:A287S/P97438:S290T/P97438:M291T/P97438:D294N): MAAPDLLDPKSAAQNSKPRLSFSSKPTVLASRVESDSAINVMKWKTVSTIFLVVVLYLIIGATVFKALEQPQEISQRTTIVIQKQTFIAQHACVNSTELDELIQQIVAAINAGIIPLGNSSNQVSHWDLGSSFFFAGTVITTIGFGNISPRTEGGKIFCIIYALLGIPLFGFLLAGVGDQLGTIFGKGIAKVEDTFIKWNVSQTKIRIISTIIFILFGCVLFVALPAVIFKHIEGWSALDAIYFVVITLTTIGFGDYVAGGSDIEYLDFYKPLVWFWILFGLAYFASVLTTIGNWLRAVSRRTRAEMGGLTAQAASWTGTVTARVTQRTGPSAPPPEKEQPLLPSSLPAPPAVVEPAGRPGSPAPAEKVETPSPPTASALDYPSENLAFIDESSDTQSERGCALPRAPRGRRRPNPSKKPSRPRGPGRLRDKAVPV
In words: TEVC of chimera TREK-1/AAK M4-C. It is filed as cell-based. The note with it: Xenopus oocytes.

For assay [4], the target named is T4, TREK-1/AAK M3-C (Mus musculus, UniProt O88454+P97438).
T4 construct: Trp199 (TREK-1/AAK M3-C); expressed in transfected cells; host or cells: Xenopus laevis oocytes, mRNA injected; chimera built by Gibson assembly
T4 sequence (P97438+O88454 with tags, fused parts or gaps P97438:N200H/P97438:S202P/P97438:Q203P/P97438:T204G/P97438:K205L/P97438:I206V/P97438:I208S/P97438:I209L/P97438:T211A/P97438:I212V/P97438:I213L/P97438:I215L/P97438:F217I/P97438:V220L/P97438:A224L/P97438:L225T/P97438:A227T/P97438:V228F/P97438:I229V/P97438:K231S/P97438:H232Y/P97438:I233M/P97438:G235S/P97438:A238K/P97438:D240E/P97438:V246I/P97438:I247V/P97438:I252V/P97438:A259P/P97438:G261D/P97438:S262G/P97438:D263T/P97438:I264G/P97438:E265Q/P97438:Y266N/P97438:L267S/P97438:D268P/P97438:F269A/P97438:K271Q/P97438:V273L/P97438:V280F/P97438:A287S/P97438:S290T/P97438:M291T/P97438:D294N): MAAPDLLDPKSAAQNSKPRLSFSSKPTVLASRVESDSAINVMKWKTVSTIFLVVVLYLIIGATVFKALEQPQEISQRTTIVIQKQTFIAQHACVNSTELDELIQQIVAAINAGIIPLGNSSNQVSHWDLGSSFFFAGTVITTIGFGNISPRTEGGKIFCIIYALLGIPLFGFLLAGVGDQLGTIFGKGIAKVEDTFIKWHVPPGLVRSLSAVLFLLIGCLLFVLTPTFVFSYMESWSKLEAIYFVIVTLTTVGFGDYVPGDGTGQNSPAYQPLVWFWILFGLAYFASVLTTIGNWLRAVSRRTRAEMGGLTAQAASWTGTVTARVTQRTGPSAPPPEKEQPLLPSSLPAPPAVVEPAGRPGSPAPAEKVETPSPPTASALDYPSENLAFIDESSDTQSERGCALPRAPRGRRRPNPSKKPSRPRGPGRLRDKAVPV
Nature of the assay: TEVC of chimera TREK-1/AAK M3-C. It is filed as cell-based. The following applies: Xenopus oocytes.

Assay [5] has as its target TREK-1/AAK M2-C (Mus musculus, UniProt O88454+P97438). Nature of the assay: TEVC of chimera TREK-1/AAK M2-C. The format is cell-based. The note with it: Xenopus oocytes.
In assay [6] the target is T5, TRAAK/EK-1 M4-C (Mus musculus, UniProt O88454+P97438, F242V/L235V/N256D/S249A/T252S/T253M).
T5 construct: and Tyr234 K2P4.1(TRAAK); expressed in transfected cells; host or cells: Xenopus laevis oocytes, mRNA injected; chimera built by Gibson assembly
In words: TEVC of chimera TRAAK/EK-1 M4-C. It is filed as cell-based. The note with it: Xenopus oocytes.

In assay [7] the target is T6, TRAAK/EK-1 M3-C (Mus musculus, UniProt O88454+P97438, A173T/A231F/D223G/E202D/F190V/F242V/G166T/G224S/G226I/H162N/I179F/I208V/K200A/L167K/L171I/L175I/L177I/L182V/L186A/L235V/M195I/N228Y/N256D/P164S/P165Q/P221A/P230D/Q227E/Q233K/S170I/S193K/S197G/S229L/S249A/T187L/T189A/T225D/T252S/T253M/V168I/V174I/V191I/V209I/V214I/Y194H).
T6 construct: Trp161 (TRAAK/EK-1 M3-C); expressed in transfected cells; host or cells: Xenopus laevis oocytes, mRNA injected; chimera built by Gibson assembly
In words: TEVC of chimera TRAAK/EK-1 M3-C. It is filed as cell-based. The following applies: Xenopus oocytes.

Assay [8] deals with T7, TRAAK/EK-1 M2-C (Mus musculus, UniProt O88454+P97438, A151S/D143N/F160Y/H141A/P165L/Q138H/R166H/S147A/S164V/V139S/V154I).
T7 construct: Thr114 (TRAAK/EK-1 M2-C); expressed in transfected cells; host or cells: Xenopus laevis oocytes, mRNA injected; chimera built by Gibson assembly
In words: TEVC of chimera TRAAK/EK-1 M2-C. The format is cell-based. The following applies: Xenopus oocytes.

Assay [9] concerns K2P18.1(TRESK). Also on record: method as in PMID 27641472. The following applies: cited from earlier work.
Where [10] appears, read: extracellular application, fold activation I/I0 at 0 mV.

T6 sequence (O88454+P97438 fused with the stated changes): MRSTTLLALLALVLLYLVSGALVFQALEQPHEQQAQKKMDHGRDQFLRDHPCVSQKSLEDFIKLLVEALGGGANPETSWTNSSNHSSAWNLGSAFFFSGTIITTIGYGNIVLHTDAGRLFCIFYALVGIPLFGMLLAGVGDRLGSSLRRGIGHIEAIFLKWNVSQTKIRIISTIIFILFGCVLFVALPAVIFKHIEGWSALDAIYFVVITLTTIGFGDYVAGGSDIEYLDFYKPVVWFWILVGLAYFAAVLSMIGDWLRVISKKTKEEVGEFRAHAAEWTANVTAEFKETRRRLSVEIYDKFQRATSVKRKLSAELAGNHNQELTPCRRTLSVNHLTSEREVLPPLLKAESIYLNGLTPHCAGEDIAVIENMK
T5 sequence (O88454+P97438 fused with the stated changes): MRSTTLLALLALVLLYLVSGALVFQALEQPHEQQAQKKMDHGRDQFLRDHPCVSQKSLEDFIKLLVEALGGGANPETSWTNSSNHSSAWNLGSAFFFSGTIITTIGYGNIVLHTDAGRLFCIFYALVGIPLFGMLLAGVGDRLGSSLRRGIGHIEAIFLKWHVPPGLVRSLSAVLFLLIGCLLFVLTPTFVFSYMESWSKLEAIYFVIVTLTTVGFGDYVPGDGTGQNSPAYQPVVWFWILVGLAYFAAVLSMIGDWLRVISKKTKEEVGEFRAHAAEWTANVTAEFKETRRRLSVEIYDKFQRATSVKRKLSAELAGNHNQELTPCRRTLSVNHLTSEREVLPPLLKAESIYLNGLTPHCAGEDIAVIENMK
T7 sequence (O88454+P97438 fused with the stated changes): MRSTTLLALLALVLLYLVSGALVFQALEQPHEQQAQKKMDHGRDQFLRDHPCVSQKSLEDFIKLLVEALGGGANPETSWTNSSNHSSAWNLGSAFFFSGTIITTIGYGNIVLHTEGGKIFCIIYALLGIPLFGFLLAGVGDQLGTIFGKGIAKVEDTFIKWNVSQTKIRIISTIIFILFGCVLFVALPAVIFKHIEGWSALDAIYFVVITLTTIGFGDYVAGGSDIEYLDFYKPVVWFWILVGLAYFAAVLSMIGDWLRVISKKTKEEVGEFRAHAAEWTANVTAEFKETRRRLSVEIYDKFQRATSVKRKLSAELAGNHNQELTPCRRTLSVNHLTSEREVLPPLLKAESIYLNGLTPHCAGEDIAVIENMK
TREK-1/AAK M2-C, sequence (P97438 16-167, one chain of several): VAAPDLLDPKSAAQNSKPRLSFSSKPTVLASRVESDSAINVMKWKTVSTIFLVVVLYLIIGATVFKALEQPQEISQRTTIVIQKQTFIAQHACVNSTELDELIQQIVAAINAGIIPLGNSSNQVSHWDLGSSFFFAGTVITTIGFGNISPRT

For `NC(=O)c1ccccc1Nc1cccc2c1CCCC2` [BL-1249-amide], the figures for the EC50 in assay [1] and in assay [2] (setting [10]) were above 200 µM and 22 ± 8 µM, respectively.
As for `c1ccc2c(c1)Nc1c(-c3nnn[nH]3)cccc1C21CCCCC1` [BL-1249-tricycle], the EC50 in [1] was 42 ± 9 µM; in [2] (setting [10]), 34 ± 6 µM. Moreover, in assay [2], the “effect on K2P2.1(TREK-1) current (in words)” value (shortened to “effect … (in words)”) is “inhibition between 0.1 and 10 μM followed by activation at higher concentrations”.
`c1ccc(Nc2ccccc2-c2nnn[nH]2)cc1` [BL-1249-Ph]: the EC50 in [1] and in [2] (setting [10]) was above 200 µM throughout. The “effect … (in words)” value in assay [2] is recorded as “only a small amount of stimulatory effect”.
Consider `CC1(C)c2cc(Cl)ccc2N(CCc2nn[nH]n2)c2ccc(Cl)cc21` [ML67-33], for which the half-maximal effective concentration (EC50) in [3] was 42 ± 3 µM; in assay [4] it was 49 ± 22 µM; in assay [5] it was 42 ± 3 µM; in assay [6], 31 ± 3 µM; in assay [7], 44 ± 14 µM; in [8] it was 33 ± 1 µM.
Molecule `O=C(O)c1ccccc1Nc1cccc2c1CCCC2` [BL-1249-acid] yielded an EC50 in [1] above 200 µM. Moreover, the “functional effect on K2P18.1(TRESK)” value in assay [9] is “inhibitor”. Also, in assay [2], the “loss of potency on K2P2.1(TREK-1) relative to BL-1249-amide” value was around 2 fold and the “effect … (in words)” value is “stronger stimulatory effect on the current than either BL-1249 or BL-1249-amide”. The EC50 in assay [2] (EC50 estimated imposing an upper boundary of 20 (fold activation, I/I0)) is 44 ± 10 µM.
